In article PMC9516332 (Frontiers in Oncology, 2022):
Read-outs that look alike come from different tables or passages of the source.

Assays:
Assay in all cases: Kinase panel profiling at 1 µmol/L (MSA or IMAP), percentage inhibition
Format in all cases: biochemical
[1] = biological target: panel of 255 wild-type kinases (Homo sapiens, UniProt P05771); details: read-out: %-inhibition at 1 µmol/L, PKCβ1
[2] = biological target: panel of 255 wild-type kinases (Homo sapiens, UniProt P19784); details: read-out: %-inhibition at 1 µmol/L, CK2α2/β
[3] = biological target: panel of 255 wild-type kinases (Homo sapiens, UniProt P28482); details: read-out: %-inhibition at 1 µmol/L, Erk2
[4] = biological target: T1, panel of 255 wild-type kinases (Homo sapiens, UniProt P54762); details: read-out: %-inhibition at 1 µmol/L, EPHB1
T1 sequence (P54762 18-984): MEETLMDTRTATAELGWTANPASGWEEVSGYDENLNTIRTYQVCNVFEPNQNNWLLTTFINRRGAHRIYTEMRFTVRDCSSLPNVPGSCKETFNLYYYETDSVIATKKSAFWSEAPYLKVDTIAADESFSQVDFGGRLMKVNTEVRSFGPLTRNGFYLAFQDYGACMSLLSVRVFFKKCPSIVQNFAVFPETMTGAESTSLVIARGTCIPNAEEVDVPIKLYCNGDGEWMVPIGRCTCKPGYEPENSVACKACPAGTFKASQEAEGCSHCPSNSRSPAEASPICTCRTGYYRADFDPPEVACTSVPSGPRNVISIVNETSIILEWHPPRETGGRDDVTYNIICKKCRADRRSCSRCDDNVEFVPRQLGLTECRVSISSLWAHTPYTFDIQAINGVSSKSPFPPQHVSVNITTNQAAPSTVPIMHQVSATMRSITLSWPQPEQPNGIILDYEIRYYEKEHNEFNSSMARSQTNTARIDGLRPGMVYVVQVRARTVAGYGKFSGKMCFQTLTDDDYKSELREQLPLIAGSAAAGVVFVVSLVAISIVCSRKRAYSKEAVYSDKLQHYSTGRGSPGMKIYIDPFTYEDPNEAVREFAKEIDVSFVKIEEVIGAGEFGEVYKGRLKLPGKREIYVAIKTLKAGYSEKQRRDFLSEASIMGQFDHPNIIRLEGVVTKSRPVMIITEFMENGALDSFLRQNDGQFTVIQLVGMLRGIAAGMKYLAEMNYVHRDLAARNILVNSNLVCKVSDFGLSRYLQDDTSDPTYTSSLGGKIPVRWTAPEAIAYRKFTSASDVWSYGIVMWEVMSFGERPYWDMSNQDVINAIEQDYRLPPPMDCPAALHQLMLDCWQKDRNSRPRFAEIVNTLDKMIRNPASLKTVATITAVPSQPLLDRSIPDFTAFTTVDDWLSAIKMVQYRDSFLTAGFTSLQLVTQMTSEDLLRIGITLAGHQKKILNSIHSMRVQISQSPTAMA

[5] = biological target: panel of 255 wild-type kinases (Homo sapiens, UniProt Q00535); details: read-out: %-inhibition CDK5/p25
[6] = biological target: panel of 255 wild-type kinases (Homo sapiens, UniProt Q15349); details: read-out: %-inhibition at 1 µmol/L, RSK3
[7] = biological target: panel of 255 wild-type kinases (Homo sapiens, UniProt Q16644); details: read-out: %-inhibition, MAPKAPK3
[8] = biological target: panel of 255 wild-type kinases (Homo sapiens, UniProt Q7KZI7); details: read-out: %-inhibition, MARK2
[9] = biological target: panel of 255 wild-type kinases (Homo sapiens, UniProt Q86V86); details: read-out: %-inhibition at 1 µmol/L, PIM3
[10] = biological target: T2, panel of 255 wild-type kinases (Homo sapiens, UniProt Q9BZL6); details: read-out: %-inhibition at 1 µmol/L, PKD2
T2 sequence (Q9BZL6 1-878): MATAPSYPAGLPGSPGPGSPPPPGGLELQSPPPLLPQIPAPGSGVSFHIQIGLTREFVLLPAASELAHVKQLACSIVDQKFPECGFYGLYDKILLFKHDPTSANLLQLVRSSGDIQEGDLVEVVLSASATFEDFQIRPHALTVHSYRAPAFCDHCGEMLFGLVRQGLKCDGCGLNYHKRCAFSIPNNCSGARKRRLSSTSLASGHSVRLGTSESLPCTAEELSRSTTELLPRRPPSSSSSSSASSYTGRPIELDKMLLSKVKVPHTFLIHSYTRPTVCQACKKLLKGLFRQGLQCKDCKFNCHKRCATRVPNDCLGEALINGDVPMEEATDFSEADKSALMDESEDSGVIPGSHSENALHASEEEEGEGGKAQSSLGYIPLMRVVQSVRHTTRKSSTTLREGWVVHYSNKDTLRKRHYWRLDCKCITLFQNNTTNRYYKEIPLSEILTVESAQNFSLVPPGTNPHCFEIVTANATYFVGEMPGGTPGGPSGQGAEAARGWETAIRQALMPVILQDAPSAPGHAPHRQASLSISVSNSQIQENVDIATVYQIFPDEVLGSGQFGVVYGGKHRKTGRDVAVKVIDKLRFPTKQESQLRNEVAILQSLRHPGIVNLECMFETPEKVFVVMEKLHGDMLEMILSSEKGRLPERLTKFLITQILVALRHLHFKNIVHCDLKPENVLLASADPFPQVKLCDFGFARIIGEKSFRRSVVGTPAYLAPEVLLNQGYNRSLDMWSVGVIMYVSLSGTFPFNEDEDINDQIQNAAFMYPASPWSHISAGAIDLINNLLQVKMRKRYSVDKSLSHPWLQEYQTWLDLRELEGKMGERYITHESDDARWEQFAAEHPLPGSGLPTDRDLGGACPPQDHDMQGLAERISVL

[11] = biological target: panel of 255 wild-type kinases (Homo sapiens, UniProt Q9H0K1); details: read-out: %-inhibition at 1 µmol/L, QIK
[12] = biological target: panel of 255 wild-type kinases (Homo sapiens, UniProt Q9NQU5); details: read-out: %-inhibition, PAK6
[13] = kinase PKCβ1, 1 µmol/L single concentration
[14] = kinase CK2α2/β, 1 µmol/L single concentration
[15] = kinase Erk2, 1 µmol/L single concentration
[16] = kinase EPHB1, 1 µmol/L single concentration
[17] = CDK5/p25 kinase assay, 1 µmol/L single concentration
[18] = kinase RSK3, 1 µmol/L single concentration
[19] = MAPKAPK3, 1 µmol/L single concentration
[20] = MARK2, 1 µmol/L single concentration
[21] = kinase PIM3, 1 µmol/L single concentration
[22] = kinase PKD2, 1 µmol/L single concentration
[23] = kinase QIK, 1 µmol/L single concentration
[24] = PAK6, 1 µmol/L single concentration

SMILES | inhibition at 1 µM [1, 13] | inhibition at 1 µM [2, 14] | inhibition at 1 µM [3, 15] | inhibition at 1 µM [4, 16] | inhibition at 1 µM [5, 17] | inhibition at 1 µM [6, 18] | inhibition at 1 µM [7, 19] | inhibition at 1 µM [8, 20] | inhibition at 1 µM [9, 21] | inhibition at 1 µM [10, 22] | inhibition at 1 µM [11, 23] | inhibition at 1 µM [12, 24] | other results
Cc1nc(NC(=O)N2CCC[C@H]2C(N)=O)sc1-c1ccnc(C(C)(C)C(F)(F)F)c1 [alpelisib] | 7% | -1.53% | -0.753% | 8% | -14% | -1.47% | -13% | -0.36% | -13% | -20% | 2.48% | 10% | –
Cn1cc(-c2cc3c(N4CCN(c5ncc([C@@](C)(N)c6ccc(F)cc6)cn5)CC4)ncnn3c2)cn1 [avapritinib] | 1.74% | -1.79% | 5% | 65% | 11% | 10% | -4% | -12% | 9% | -0.865% | 44% | 9% | –
Cn1cnc2c(F)c(Nc3ccc(Br)cc3F)c(C(=O)NOCCO)cc21 [binimetinib] | -3.39% | -1.89% | 0.0301% | 2% | -21% | -5% | -11% | -6% | 5% | -7% | -4% | 4.75% | –
CNC(=O)c1ccc(-c2cnc3ncc(Cc4ccc5ncccc5c4)n3n2)cc1F [capmatinib] | – | – | – | – | – | – | – | – | – | – | – | – | inhibition at 1 µM [1]: 1.2%; inhibition at 1 µM [2]: -0.77%; inhibition at 1 µM [3]: 1.14%; inhibition at 1 µM [4]: -1.63%; inhibition at 1 µM [5]: -20%; inhibition at 1 µM [6]: 5%; inhibition at 1 µM [7]: -11%; inhibition at 1 µM [8]: -8%; inhibition at 1 µM [9]: 1.78%; inhibition at 1 µM [10]: -7.47%; inhibition at 1 µM [11]: -2.24%; inhibition at 1 µM [12]: -34%
COc1cc2ncnc(Nc3ccc(F)c(Cl)c3)c2cc1NC(=O)/C=C/CN1CCCCC1 [dacomitinib] | 3.74% | 1.11% | -1.48% | 45% | -29% | 27% | -25% | -0.433% | 23% | 10% | 68% | 6.65% | –
